This passage reports MIC results from ChEMBL document CHEMBL3792360, “Antibacterial activity of Mannich bases derived from 2-naphthols, aromatic aldehydes and secondary aliphatic amines” (2016).

In brackets after ≈: the same amount, converted by molar mass.

What all share (type): functional
The subject of assay [1] is Escherichia coli. Kind of assay: Antibacterial activity against Escherichia coli ATCC 25922 after 16 to 20 hrs by broth microdilution method. (In general: Dilution methods test growth across graded concentrations, often in twofold steps.)
Assay [2] deals with Klebsiella pneumoniae. Description: Antibacterial activity against Klebsiella pneumoniae CIP 53153 after 16 to 20 hrs by broth microdilution method.
Assay [3] has as its system Enterococcus faecalis. Kind of assay: Antibacterial activity against Enterococcus faecalis ATCC 25912 after 16 to 20 hrs by broth microdilution method.
Assay [4] concerns Proteus vulgaris. Kind of assay: Antibacterial activity against Proteus vulgaris CIP 104989 after 16 to 20 hrs by broth microdilution method.
The subject of assay [5] is Enterobacter cloacae. Kind of assay: Antibacterial activity against Enterobacter cloacae CIP 103475 after 16 to 20 hrs by broth microdilution method.
Assay [6] deals with Staphylococcus aureus. Kind of assay: Antibacterial activity against methicillin-resistant Staphylococcus aureus ATCC 43300 after 16 to 20 hrs by broth microdilution method.
For assay [7], the system named is Escherichia coli. Description: Antibacterial activity against Escherichia coli ATCC 35218 after 16 to 20 hrs by broth microdilution method.
For assay [8], the system named is Citrobacter freundii. Kind of assay: Antibacterial activity against Citrobacter freundii CIP 5732 after 16 to 20 hrs by broth microdilution method.
The test system of assay [9] is Pseudomonas aeruginosa. Kind of assay: Antibacterial activity against Pseudomonas aeruginosa CIP 82118 after 16 to 20 hrs by broth microdilution method.
Assay [10] deals with Staphylococcus aureus. Kind of assay: Antibacterial activity against Staphylococcus aureus […] after 16 to 20 hrs by broth microdilution method.

Take `Oc1ccc2ccccc2c1C(c1cccs1)n1nnc2ccccc21` (stereo not given): the MIC – broadly, the smallest concentration in the dilution series that meets the test's criterion for growth inhibition – in assay [1] was more than 512 µg/mL; in [2], more than 512 µg/mL; in assay [3], more than 512 µg/mL; in [4], more than 512 µg/mL; in assay [5] it was more than 512 µg/mL; in [6], 16 µg/mL (≈ 44.8 µM). Further, the MIC in [7] was more than 512 µg/mL; in assay [8], more than 512 µg/mL; in [9], more than 512 µg/mL; in assay [10], 16 µg/mL (≈ 44.8 µM).
In the case of `Cc1cc(C)cc(C(c2c(O)ccc3ccccc23)N2CCC(C)CC2)c1` (stereo not given), the MIC in assay [1], in [2], in assay [3], in [4], in assay [5] and in [6] was more than 512 µg/mL each time. Moreover, the MIC in [7], in assay [8], in assay [9] and in assay [10] was more than 512 µg/mL each time.
With `CC1CCN(C(c2cccc3ccccc23)c2c(O)ccc3cc(Br)ccc23)CC1` (stereo not given), the MIC in assay [1], in [2], in assay [3], in assay [4], in [5] and in assay [6] was more than 512 µg/mL in each case. Besides, the MIC in assay [7], in assay [8], in assay [9] and in assay [10] was more than 512 µg/mL in each case.
Consider `Oc1ccc2ccccc2c1C(c1cccc2ccccc12)N1CCCCC1` (stereo not given), for which the MIC in assay [1], in assay [2], in assay [3], in assay [4], in assay [5] and in assay [6] was more than 512 µg/mL throughout. Further, the MIC in [7], in [8], in [9] and in assay [10] was more than 512 µg/mL throughout.
With `CC1CCN(C(c2ccc(F)cc2)c2c(O)ccc3ccccc23)CC1` (stereo not given), the minimal inhibitory concentration (MIC) in [1], in [2], in assay [3], in assay [4], in assay [5] and in assay [6] was more than 512 µg/mL in each case. The MIC in assay [7], in [8], in [9] and in [10] was more than 512 µg/mL throughout.
Regarding `CC1(C)S[C@@H]2[C@H](NC(=O)[C@H](N)c3ccc(O)cc3)C(=O)N2[C@H]1C(=O)O` [AMOXICILLIN], the minimum inhibitory concentration (MIC) worked out at 2 µg/mL (≈ 5.47 µM) in assay [1]; 256 µg/mL (≈ 701 µM) in assay [2]; 0.25 µg/mL (≈ 0.684 µM) in assay [3]; 256 µg/mL (≈ 701 µM) in assay [4]; 256 µg/mL (≈ 701 µM) in assay [5]; 8 µg/mL (≈ 21.9 µM) in assay [6]. Moreover, the MIC in assay [7] is 2 µg/mL (≈ 5.47 µM); in assay [8], 125 µg/mL (≈ 342 µM); in [9], more than 512 µg/mL; in [10], 0.06 µg/mL (≈ 0.164 µM).
With `Oc1ccc2cc(Br)ccc2c1C(c1cccc(Cl)c1)N1CCCCC1` (stereo not given), the minimum inhibitory concentration (MIC) in assay [1], in assay [2], in assay [3], in [4], in assay [5] and in assay [6] was more than 512 µg/mL in each case. Besides, the minimum inhibitory concentration (MIC) in [7] was more than 512 µg/mL; in assay [8], more than 512 µg/mL; in assay [9], more than 512 µg/mL; in assay [10] it was 8 µg/mL (≈ 18.6 µM).
Turning to `CC1CCN(C(c2ccccc2)c2c(O)ccc3cc(Br)ccc23)CC1` (stereo not given), the MIC in assay [1], in assay [2], in assay [3], in [4], in assay [5] and in assay [6] was more than 512 µg/mL in each case. Moreover, the MIC in assay [7], in assay [8], in assay [9] and in assay [10] was more than 512 µg/mL throughout.
As for `COc1ccc2ccc(O)c(C(c3ccccc3)N3CCC(C)CC3)c2c1` (stereo not given), the MIC in assay [1], in assay [2], in assay [3], in assay [4], in assay [5] and in assay [6] was more than 512 µg/mL throughout. In addition, the minimum inhibitory concentration (MIC) in assay [7] was more than 512 µg/mL; in [8] it was more than 512 µg/mL; in assay [9], more than 512 µg/mL; in [10], 8 µg/mL (≈ 22.1 µM).
